Data reported in US20200063214A1, “METHODS OF IDENTIFYING PATIENTS LIKELY TO BENEFIT FROM TREATMENT WITH A TELOMERASE INHIBITOR” (Geron Corporation, priority 2018, published 2020).
Values joined by “and” are separate entries in the source; they are usually repeats but may differ in a detail not shown here. Equal entries are not always repeated. “Also recorded” adds a separate entry of the source.

Legend:
[1] = system: intermediate-2 or high-risk myelofibrosis (MF) relapsed/refractory to JAK inhibitor; assay: Phase 2 study: spleen response (spleen volume reduction, SVR, by MRI at week 24); type: in vivo, human
Source text: (§1) Diagnosis of primary, post-essential thrombocythemia, or post-polycythemia vera MF was required; other eligibility criteria included measurable splenomegaly (by magnetic resonance imaging [MRI]), active MF-related systemic symptoms and platelet count ≥75×10^9/L. Primary endpoints were: spleen response rate (% achieving ≥35% spleen volume reduction [SVR] by MRI at week 24); and symptom response rate (% achieving ≥50% reduction in total symptom score [TSS] per the Myelofibrosis Symptom Assessment Form (MFSAF) v2 at week 24). Key secondary endpoints included safety, overall survival (OS), treatment response, molecular response, and pharmacokinetic and pharmacodynamic relationships.

[2] = system: intermediate-2 or high-risk myelofibrosis (MF) relapsed/refractory to JAK inhibitor; assay: Phase 2 study: symptom response (total symptom score, TSS, MFSAF v2 at week 24); type: in vivo, human; details: 9.4 mg/kg
Source text: as §1

[3] = system: intermediate-2 or high-risk myelofibrosis (MF) relapsed/refractory to JAK inhibitor; assay: Phase 2 study: overall survival (OS); type: in vivo, human
Source text: as §1

[4] = Phase 2 study: adverse events on treatment; type: in vivo, human
Source text: as §1

[5] = system: telomerase activity; assay: Pharmacodynamics: telomerase activity (TA) reduction from baseline in study subjects; type: in vivo, human; details: for subjects with Telomerase Activity >30% reduction from baseline / subjects with Telomerase Activity >50% reduction from baseline: both arms
Source text: In other embodiments of the invention, telomerase activity and level of hTERT expression in biological samples obtained from patients can be determined to evaluate pharmacodynamic effects and/or monitor patients being treated with a telomerase inhibition. The telomerase activity can be measured using the TRAP (Telomeric Repeat Amplification Protocol) telomerase activity assay. The level of hTERT expression can be determined by measuring the level of hTERT RNA expression in the cells in the biological sample using northern blots or serial analysis of gene expression (SAGE) or other methods.
(§2) Telomerase activity and hTERT was analyzed to evaluate pharmacodynamic effects for imetelstat.

[6] = system: hTERT RNA expression; assay: Pharmacodynamics: hTERT RNA level reduction from baseline, whole blood; type: in vivo, human; details: both arms
Method: as §2

[7] = system: human telomerase; details: Asai 2003; Herbert 2005; cited from earlier work
[8] = system: various cancer cell lines and tumor xenografts in mice; details: cited from earlier work
[9] = system: patients with essential thrombocythemia; details: phase 2, essential thrombocythemia; cited from earlier work
[10] = system: intermediate-2 (int-2) or high-risk myelofibrosis (MF); details: 33-patient pilot study, Tefferi 2015; cited from earlier work
[11] = 9.4 mg/kg, all with baseline TL data, N = 53
[12] = all with baseline TL data, N = 53
[13] = 9.4 mg/kg arm, Non-TN (MUT), second clinical cutoff
[14] = 9.4 mg/kg arm, Triple Negative (TN), second clinical cutoff
[15] = 4.7 MG/KG, all subjects with baseline TL (N 40)
[16] = 4.7 MG/KG, all subjects with baseline TL (N 40), first clinical cutoff
[17] = 4.7 MG/KG, baseline TL <=Median Value
[18] = 4.7 MG/KG, baseline TL >Median Value
[19] = 9.4 MG/KG, all subjects with baseline TL (N 53)
[20] = 9.4 MG/KG, baseline TL <=Median Value
[21] = 9.4 MG/KG, baseline TL >Median Value
[22] = Spleen Response at wk 24 by IRC: No
[23] = Spleen Response at wk 24 by IRC: Yes

In the case of “imetelstat: 13-mer oligonucleotide that targets the RNA template of human telomerase; first-in-class telomerase inhibitor (TAGGGTTAGACAA; 5' palmitoyl amidopropyl, thio-phosphoramidate, sodium salt, further chemistry not given here)”, the “responses (SVR or TSS) in patients with HMR having greater than one mutation” value ([1]; 9.4 mg/kg) is reported as “responses were observed”, the “rate of response (SVR or TSS), LMR or HMR with only 1 mutation compared to HMR with more than 1 mutations” value ([1]; 9.4 mg/kg arm, week 24) is reported as “enriched” and the “rate of response (SVR or TSS), TN group compared to Non-TN group” value ([1]; 9.4 mg/kg arm, week 24) is reported as “enriched”. The “rate of response (SVR or TSS), shorter baseline TL compared to longer TL” value ([1]; 9.4 mg/kg arm, week 24) was “enriched; also recorded: higher rate of response”, the “subjects with SVR >= 35% at week 24 by IRC, No” value ([1]; 9.4 mg/kg, Longer TL (>Median value), 24 subjects) was 23 (92.7%) and the “subjects with SVR >= 35% at week 24 by IRC, No” value ([1]; 9.4 mg/kg, Shorter TL (<= Median value), 29 subjects) was 24 (82.75%). For the same substance, the “subjects with SVR >= 35% at Week 24 by IRC, Yes” value [1, 11] was “(10.5%)”, the “subjects with SVR >= 35% at week 24 by IRC, No” value [1, 11] was “(89.5%)” and the “subjects with TSS >= 50% decrease at week 24, No” value ([2]; Longer TL (>Median value), 24 subjects) was 18 (75%). The “subjects with TSS >= 50% decrease at week 24, No” value ([2]; Shorter TL (<= Median value), 29 subjects) was 19 (65.6%), the “subjects with TSS >= 50% decrease at week 24, No” value [2, 12] was “(69.8%)” and the “subjects with TSS >= 50% decrease at week 24, Yes” value [2, 12] was “(30.2%)”. The “OS trend, shorter baseline TL (<= median TL)” value ([3]; 9.4 mg/kg arm) was “better OS trend”, the “Median survival, months (95% CI)” value [3, 13] was 24.6 (19.7, NE) months and the “Percentage of Subjects Who Died” value [3, 13] was 21/41 (51.2%). For the same substance, the “Median survival, months (95% CI)” value ([3]; 9.4 mg/kg arm, Non-TN subjects, first clinical cutoff) was 23.6 months, the “OS HR (Hazard Ratio) (95% CI)” value ([3]; 9.4 mg/kg arm, Non-TN vs TN, second clinical cutoff) was 2.60 (0.89, 7.59) and the “Median survival, months (95% CI)” value ([3]; 9.4 mg/kg arm, TN subjects, first clinical cutoff) was “not estimable”. For the same substance, the “Median survival, months (95% CI)” value [3, 14] was “NE (23.2, NE)”, the “Percentage of Subjects Who Died” value [3, 14] was 4/16 (25.0%) and the “18-months survival rate % (95% CI)” value [3, 15] was 68.2 %. The “24-months survival rate % (95% CI)” value [3, 15] was 39.6 %, the “Number of events (OS)” value [3, 16] was 20 and the “Overall Survival (months) Median (95% CI)” value (“Overall Survival … (95% CI)” below) [3, 16] was 22.3 (18.2, NE) months. For the same substance, the “18-months survival rate % (95% CI)” value [3, 17] was 76.7 %, the “24-months survival rate % (95% CI)” value [3, 17] was 34.1 % and the “Number of events (%) (OS)” value ([3]; 4.7 MG/KG, baseline TL <=Median Value, first clinical cutoff) was 10(25.0%). For the same substance, the “18-months survival rate % (95% CI)” value [3, 18] was 61.0 %, the “24-months survival rate % (95% CI)” value [3, 18] was 46.6 % and the “Number of events (%) (OS)” value ([3]; 4.7 MG/KG, baseline TL >Median Value, first clinical cutoff) was 10(25.0%). For the same substance, the “Overall Survival … (95% CI)” value ([3]; 4.7 MG/KG, longer baseline TL (>Median Value), first clinical cutoff) was 22.3 (16.6, NE) months and 22.3 months, the “Overall Survival … (95% CI)” value ([3]; 4.7 MG/KG, shorter baseline TL (<=Median Value), first clinical cutoff) was 20.3 (17.2, NE) months and 20.3 months and the “18-months survival rate % (95% CI)” value [3, 19] was 75.9 %. The “24-months survival rate % (95% CI)” value [3, 19] was 54.2 %, the “Number of events (OS)” value ([3]; 9.4 MG/KG, all subjects with baseline TL (N 53), first clinical cutoff) was 18 and the “18-months survival rate % (95% CI)” value [3, 20] was 81.2 %. The “24-months survival rate % (95% CI)” value [3, 20] was 59.3 %, the “Number of events (%) (OS)” value ([3]; 9.4 MG/KG, baseline TL <=Median Value, first clinical cutoff) was 8(15.1%) and the “18-months survival rate % (95% CI)” value [3, 21] was 69.8 %. For the same substance, the “24-months survival rate % (95% CI)” value [3, 21] was 47.6 %, the “Number of events (%) (OS)” value ([3]; 9.4 MG/KG, baseline TL >Median Value, first clinical cutoff) was 10(18.9%) and the “Overall Survival … (95% CI)” value ([3]; 9.4 MG/KG, longer baseline TL (>Median Value), first clinical cutoff) was 22.8 months. The “Overall Survival … (95% CI)” value ([3]; 9.4 MG/KG, shorter baseline TL (<=Median Value), first clinical cutoff) was “not estimable”, the “Imetelstat-related hepatic toxicities, confirmed by independent Hepatic Review Committee” value [4] was “not observed” and the “PD effect (telomerase activity and hTERT RNA reduction), 9.4 vs […]” value ([5]; 9.4 mg/kg arm vs […] arm) was “dose-dependent PD effect”. The “subjects achieving TA >=30% decrease from baseline at any timepoint” value ([5]; 4.7 MG/KG, 34 subjects with baseline) was 14 (41.2%), the “subjects achieving TA >=30% decrease from baseline at any timepoint” value ([5]; 9.4 MG/KG, 45 subjects with baseline) was 28 (62.2%) and the “subjects with Telomerase Activity >30% reduction from baseline” value [5, 22] was 41/70 (58.6%). For the same substance, the “subjects with Telomerase Activity >50% reduction from baseline” value [5, 22] was 34/70 (48.6%), the “subjects with Telomerase Activity >30% reduction from baseline” value [5, 23] was 3/4 (75%) and the “subjects with Telomerase Activity >50% reduction from baseline” value [5, 23] was 2/4 (50%). For the same substance, the “subjects with Telomerase Activity >30% reduction from baseline” value ([5]; TSS Response at wk 24: No) was 29/56 (51.8%), the “subjects with Telomerase Activity >50% reduction from baseline” value ([5]; TSS Response at wk 24: No) was 24/56 (42.9%) and the “subjects with Telomerase Activity >30% reduction from baseline” value ([5]; TSS Response at wk 24: Yes) was 15/18 (83.3%). The “subjects with Telomerase Activity >50% reduction from baseline” value ([5]; TSS Response at wk 24: Yes) was 12/18 (66.7%), the “subjects with hTERT>50% reduction from baseline” value ([6]; TSS Response at wk 24: No) was 45/81 (55.6%) and the “subjects with hTERT>50% reduction from baseline” value ([6]; TSS Response at wk 24: Yes) was 15/24 (62.5%). The “inhibition of telomerase enzymatic activity” value [7] was “potent competitive inhibitor”, the “telomerase activity and cell proliferation” value [8] was “inhibits telomerase activity and cell proliferation” and the “JAK2 V617F and CALR mutant allele burdens” value [9] was “significant reduction”. The platelet-lowering activity [9] was “platelet-lowering activity” and the “clinical activity and safety profile” value [10] was “Clinical activity and an acceptable safety profile”.
